The test system of one data set is neuropilin-1 (NRP-1). The following applies: cited from earlier work. The text has this:
(§1) The striking iRGD’s tumor-homing activity is linked to the marked overexpression of RGD integrins on the cancer cell membrane.[38]−[40] […] This can be correlated to the peculiar multistage internalization process of iRGD, where the binding to integrins represents only the first step.[16]

For data set [1] the following is noted: cited from earlier work.
Excerpt: as §1

Another data set has as its system tumor migration. The following applies: in vitro, CendR- and NRP-1-dependent; cited from earlier work.
Excerpt: as §1

The test system of another data set is tumor. The following applies: cited from earlier work. The text has this: (§2) Nowadays, the clinical efficacy of chemotherapeutic drugs is frequently hampered either by a lack of selectivity over healthy cells or by poor pharmacokinetic properties, including cancer homing and penetration. This is especially true for solid tumors, which are frequently characterized by the upregulation of junction proteins such as desmoglein 2 (DSG2) and E-cadherin, and extracellular matrix (ECM) components (i.e., fibrinogen and collagen), which form a physical barrier against the intracellular transport of exogenous molecules.[1] For these reasons, anticancer compounds often need to be a ...

Data set [2] deals with metastatic pancreatic ductal adenocarcinoma (PDAC). The following applies: phase I trial, combination with nab-paclitaxel and gemcitabine; cited from earlier work.
Excerpt: as §2

A further data set deals with T1, αvβ6 (Homo sapiens, UniProt P06756+P18564).
T1 construct: purchased Sino Biological Europe GmbH
T1 sequence (P06756 31-992 limits assumed): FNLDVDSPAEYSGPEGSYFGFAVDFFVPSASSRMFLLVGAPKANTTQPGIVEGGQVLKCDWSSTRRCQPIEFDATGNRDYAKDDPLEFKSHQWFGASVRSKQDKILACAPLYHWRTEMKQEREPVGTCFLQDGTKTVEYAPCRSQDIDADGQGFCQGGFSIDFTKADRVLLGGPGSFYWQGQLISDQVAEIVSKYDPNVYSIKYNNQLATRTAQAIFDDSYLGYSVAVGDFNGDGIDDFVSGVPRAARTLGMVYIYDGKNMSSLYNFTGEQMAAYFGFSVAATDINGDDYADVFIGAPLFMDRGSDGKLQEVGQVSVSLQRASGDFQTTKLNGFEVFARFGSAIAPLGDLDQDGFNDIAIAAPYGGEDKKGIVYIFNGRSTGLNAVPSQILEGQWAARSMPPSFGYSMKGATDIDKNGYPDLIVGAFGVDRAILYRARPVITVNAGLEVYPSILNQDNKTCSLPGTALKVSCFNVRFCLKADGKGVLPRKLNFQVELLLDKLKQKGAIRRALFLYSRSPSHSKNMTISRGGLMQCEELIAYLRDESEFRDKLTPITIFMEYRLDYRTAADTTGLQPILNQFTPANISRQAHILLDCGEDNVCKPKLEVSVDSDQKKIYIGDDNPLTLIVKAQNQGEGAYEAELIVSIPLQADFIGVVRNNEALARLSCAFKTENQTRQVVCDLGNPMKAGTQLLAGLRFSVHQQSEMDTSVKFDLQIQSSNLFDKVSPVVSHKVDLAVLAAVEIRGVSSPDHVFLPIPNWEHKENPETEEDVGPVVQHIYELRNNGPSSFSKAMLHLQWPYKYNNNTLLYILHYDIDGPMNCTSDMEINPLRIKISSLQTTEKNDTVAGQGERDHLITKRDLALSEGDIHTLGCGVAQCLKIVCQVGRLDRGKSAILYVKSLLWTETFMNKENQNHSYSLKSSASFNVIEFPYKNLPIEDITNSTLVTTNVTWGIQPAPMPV
T1 sequence (P18564 22-707 limits assumed): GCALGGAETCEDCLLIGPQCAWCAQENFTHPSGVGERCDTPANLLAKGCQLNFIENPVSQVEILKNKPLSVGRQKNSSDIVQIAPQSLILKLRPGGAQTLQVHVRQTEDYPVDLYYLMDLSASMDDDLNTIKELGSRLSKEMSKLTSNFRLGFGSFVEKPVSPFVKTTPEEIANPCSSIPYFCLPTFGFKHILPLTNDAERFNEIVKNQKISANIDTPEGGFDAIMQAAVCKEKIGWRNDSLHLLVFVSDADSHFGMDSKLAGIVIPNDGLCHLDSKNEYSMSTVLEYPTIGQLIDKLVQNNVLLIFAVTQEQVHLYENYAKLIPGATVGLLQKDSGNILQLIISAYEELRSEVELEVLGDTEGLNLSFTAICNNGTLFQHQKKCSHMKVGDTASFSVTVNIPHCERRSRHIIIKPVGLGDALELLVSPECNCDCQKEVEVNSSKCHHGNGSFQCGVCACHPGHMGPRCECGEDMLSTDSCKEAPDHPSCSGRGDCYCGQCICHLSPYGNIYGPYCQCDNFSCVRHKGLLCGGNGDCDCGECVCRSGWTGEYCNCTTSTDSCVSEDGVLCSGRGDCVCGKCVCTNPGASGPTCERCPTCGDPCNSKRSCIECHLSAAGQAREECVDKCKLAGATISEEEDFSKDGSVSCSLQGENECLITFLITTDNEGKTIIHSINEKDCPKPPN
In words: Solid-phase integrin binding assay, αvβ6. The following applies: αvβ6 1 μg/mL coated overnight at 4 °C; biotinylated fibronectin 1 μg/mL; 3 h incubation at room temperature; pH 7.4; absorbance 415 nm; mean of three independent experiments ± SEM.

A further data set concerns the target T2, αvβ5 (Homo sapiens, UniProt P06756+P18084).
T2 construct: purchased R&D Systems, Inc
Description: Solid-phase integrin binding assay, αvβ5.

These results are taken from PMC10598797, “Molecular View on the iRGD Peptide Binding Mechanism: Implications for Integrin Activity and Selectivity Profiles” (Journal of Chemical Information and Modeling, 2023).

T2 sequence (P06756 31-992 limits assumed): as the sequence (P06756 31-992 limits assumed) above
T2 sequence (P18084 24-719 limits assumed): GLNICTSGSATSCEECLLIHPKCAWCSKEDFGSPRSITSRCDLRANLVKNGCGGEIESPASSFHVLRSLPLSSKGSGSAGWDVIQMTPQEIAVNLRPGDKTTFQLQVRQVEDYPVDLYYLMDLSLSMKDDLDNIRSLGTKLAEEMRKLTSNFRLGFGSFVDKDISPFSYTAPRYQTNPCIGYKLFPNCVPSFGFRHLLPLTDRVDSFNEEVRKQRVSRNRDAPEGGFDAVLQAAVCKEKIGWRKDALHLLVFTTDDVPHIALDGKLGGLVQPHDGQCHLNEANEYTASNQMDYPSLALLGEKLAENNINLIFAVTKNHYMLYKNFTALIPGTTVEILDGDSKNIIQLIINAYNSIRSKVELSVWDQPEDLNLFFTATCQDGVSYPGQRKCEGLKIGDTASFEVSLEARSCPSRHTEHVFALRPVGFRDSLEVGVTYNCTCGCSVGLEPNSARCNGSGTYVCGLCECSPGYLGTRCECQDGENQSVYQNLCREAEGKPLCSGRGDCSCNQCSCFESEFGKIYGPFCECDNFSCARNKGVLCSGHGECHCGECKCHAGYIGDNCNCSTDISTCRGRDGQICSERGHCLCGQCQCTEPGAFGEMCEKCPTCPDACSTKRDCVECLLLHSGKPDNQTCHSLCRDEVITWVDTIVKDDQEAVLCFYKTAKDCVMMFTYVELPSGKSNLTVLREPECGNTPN
Description for αvβ5: (§3) Purified αvβ3 (Sino Biological Europe GmbH) and αvβ5 (R&D Systems, Inc.) were diluted to 0.5 μg/mL, while αvβ6 (Sino Biological Europe GmbH) was diluted to 1 μg/mL in coating buffer containing Tris–HCl (20 mmol/L; pH 7.4), NaCl (150 mmol/L), MnCl2 (1 mmol/L), CaCl2 (2 mmol/L), and MgCl2 (1 mmol/L). An aliquot of diluted receptors (100 μL per well) was added to 96-well microtiter plates (Nunc MW96F Maxisorp Straight) and incubated overnight at 4 °C. The plates were then incubated with blocking solution (coating buffer plus 1% bovine serum albumin) for an additional 2 h at room temperature to block nonspecific binding, followed by 3 h incubation at room temperature with various concentrations of test compounds in the presence of, respectively, vitronectin (1 μg/mL, Sigma-Aldrich) for αvβ3 and αvβ5 and fibronectin for αvβ6 (1 μg/mL, Sigma-Aldrich) biotinylated using the EZ-Link Sulfo-NHS-Biotinylation kit (Thermo Fisher). […] Absorbance at 415 nm was read with a BMG Labtech Fluostar Optima microplate reader. All of the experiments were performed in triplicates, and the data collected were analyzed using the GraphPad 5.0 Software Package (GraphPad Prism, San Diego, CA).
Description for αvβ6: as §3

Regarding CRGDK [CendR motif], the “internalization upon binding to NRP-1” value with neuropilin-1 (NRP-1) is listed as “triggers the internalization of the peptide–receptor complex”.

One may read the IC50 as the concentration that inhibits the measured activity by half. A high value points to weaker potency in that assay. As to `N=C(N)NCCC[C@@H]1NC(=O)[C@@H](N)CSSC[C@@H](C(=O)O)NC(=O)[C@H](CC(=O)O)NC(=O)[C@@H]2CCCN2C(=O)CNC(=O)[C@H](CCCCN)NC(=O)[C@H](CC(=O)O)NC(=O)CNC1=O` [1 (iRGD)], the “site of proteolytical cleavage” value in data set [1] is “proteolytical cleavage at the Lys^5–Gly^6 bond”. For the same compound, the “effect on tumor migration and chemorepulsion” value with tumor migration was “can inhibit tumor migration and induce chemorepulsion”. In addition, in the data set on tumor, the “tumor endocytosis of cytotoxic agents” value is given as “enhanced by the simple coadministration”. Also, the progression-free survival result in data set [2] is on record as “longer progression-free survival”. The IC50 at αvβ6 was 191 ± 44 nM. Also, the “potency toward αvβ5 (in words)” value on αvβ5 is recorded as “mid-low nanomolar potency”.
